Assay results: ChEMBL document CHEMBL1201862, “PubChem BioAssay data set” (2004)
Calls of active or inactive are those of the source.

Assays:
[1] = target: T1, DNA repair and recombination protein RAD54-like (Homo sapiens, UniProt Q92698); assay: inhibitors of human RAD54 branch migration, confirmation, biochemical, fluorescence, cherry-picked samples, dose series (AID 651657); assay type: functional
T1 sequence (Q92698 whole entry): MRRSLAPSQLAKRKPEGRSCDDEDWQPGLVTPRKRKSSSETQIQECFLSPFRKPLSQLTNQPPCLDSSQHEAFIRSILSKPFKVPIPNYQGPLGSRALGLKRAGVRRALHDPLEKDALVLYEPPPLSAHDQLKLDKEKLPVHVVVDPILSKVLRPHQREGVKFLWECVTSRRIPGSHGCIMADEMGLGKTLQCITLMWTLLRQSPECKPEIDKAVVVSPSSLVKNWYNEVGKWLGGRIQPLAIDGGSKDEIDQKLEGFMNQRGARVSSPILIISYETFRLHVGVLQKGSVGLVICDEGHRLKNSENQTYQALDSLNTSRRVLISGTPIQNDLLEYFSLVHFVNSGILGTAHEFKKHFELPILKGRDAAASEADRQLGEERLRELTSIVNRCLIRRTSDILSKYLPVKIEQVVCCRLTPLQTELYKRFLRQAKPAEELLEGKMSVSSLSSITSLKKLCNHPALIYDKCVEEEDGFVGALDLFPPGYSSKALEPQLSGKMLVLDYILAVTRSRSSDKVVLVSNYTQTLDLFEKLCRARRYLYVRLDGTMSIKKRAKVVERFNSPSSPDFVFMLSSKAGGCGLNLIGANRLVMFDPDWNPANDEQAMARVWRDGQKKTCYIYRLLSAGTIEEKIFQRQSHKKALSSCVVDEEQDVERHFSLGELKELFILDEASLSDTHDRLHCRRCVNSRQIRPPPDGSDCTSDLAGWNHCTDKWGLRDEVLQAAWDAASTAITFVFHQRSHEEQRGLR

[2] = intracellular Trypanosoma cruzi inhibitors in host cells – cell-based, plate reader, cherry-pick samples, set 3, dose response (AID 651818); assay type: functional;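 further: compounds incubated with infected cells for about four days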
[3] = target: T2, Rac GTPase-activating protein 1 (Homo sapiens, UniProt Q9H0H5); assay: MgcRacGAP GTPase-activating activity inhibitors, confirmation, biochemical, ADP Hunter fluorescence, primary and confirmatory (AID 624330); assay type: functional
T2 sequence (Q9H0H5 whole entry): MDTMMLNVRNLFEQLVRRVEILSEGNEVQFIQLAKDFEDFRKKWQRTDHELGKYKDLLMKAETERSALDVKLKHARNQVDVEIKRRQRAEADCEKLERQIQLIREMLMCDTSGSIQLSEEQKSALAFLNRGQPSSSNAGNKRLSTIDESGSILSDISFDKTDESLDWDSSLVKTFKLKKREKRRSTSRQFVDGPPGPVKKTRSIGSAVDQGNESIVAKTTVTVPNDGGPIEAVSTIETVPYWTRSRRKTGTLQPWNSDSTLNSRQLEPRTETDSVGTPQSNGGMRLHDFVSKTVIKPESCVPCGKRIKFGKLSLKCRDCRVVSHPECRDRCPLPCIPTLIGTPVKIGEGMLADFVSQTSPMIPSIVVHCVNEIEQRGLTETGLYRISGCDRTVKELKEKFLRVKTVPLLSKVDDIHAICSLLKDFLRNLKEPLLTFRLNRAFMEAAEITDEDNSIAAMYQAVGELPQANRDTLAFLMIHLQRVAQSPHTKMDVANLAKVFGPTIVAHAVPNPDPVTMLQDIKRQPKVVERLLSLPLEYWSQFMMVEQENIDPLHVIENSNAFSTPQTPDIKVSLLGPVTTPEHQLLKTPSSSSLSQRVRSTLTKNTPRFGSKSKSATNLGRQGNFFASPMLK

[4] = HeLa cell cytotoxicity, dose response, cytotoxicity control for MgcRacGAP inhibitor project (AID 624300); assay type: functional
[5] = LGR2 antagonists, dose response, cell-based, HEK293, CRE-luciferase reporter, cherry pick, set 2 (AID 743343); assay type: functional;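 further: transfected cells were stimulated with diluted bursicon conditioned medium after compound addition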
[6] = MC4R antagonists, dose response, counter-screen for LGR2 antagonist project, cell-based, plate reader, cherry pick (AID 743444); assay type: functional;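 further: transfected HEK 293 cells stimulated with alpha-MSH peptide; potency of inhibitors of the alpha-MSH evoked signal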
[7] = HEK293 cell cytotoxicity, dose response, cytotoxicity control, plate reader, cherry-picked samples (AID 743446); assay type: functional, cell-based
[8] = A549 cell cytotoxicity, dose response, cytotoxicity control, plate reader, cherry-pick, antagonist series (AID 743412); assay type: functional, cell-based
[9] = HepG2 cell cytotoxicity, dose response, cytotoxicity control, plate reader, cherry-pick, antagonist series (AID 743416); assay type: functional, cell-based
[10] = off-target signal loss in HeLa-CEM21 co-culture – HeLa F-luc CTL cells, cherry-picked, counter-screen for HIV-1 Env fusion inhibitor project, dose response (AID 652040); assay type: functional, cell-based;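 further: potency for signal decrease marking cytotoxic or nonspecific inhibition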
[11] = inhibitors of HIV Env-driven cell fusion, dose response, cherry-pick (AID 652057); assay type: functional, cell-based
[12] = inhibitors of clade B AD8 Env fusion, dose response, cell-based, cherry-pick (AID 652062); assay type: functional;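 further: luciferase signal from cell-cell fusion driven by HIV-1 clade B AD8 Env; potency is for inhibitors of fusion seen as a drop in luminescence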

With `Cc1ccc2oc(=O)c3cc(C(=O)NCCCN4CCN(C)CC4)sc3c2c1` the AC50 [1] was 34 µM (active).

In the case of `Cc1ccc(S(=O)(=O)N(C)C[C@H]2Oc3ccc(NS(=O)(=O)c4ccccc4)cc3CC(=O)N([C@H](C)CO)C[C@H]2C)cc1`, the AC50 [2] was 2.56 µM (active).

For `C[C@H]1CN([C@@H](C)CO)C(=O)Cc2cc(NC(=O)Cc3ccccc3)ccc2O[C@H]1CN(C)Cc1ccc(C(F)(F)F)cc1`, the AC50 [2] was 2.61 µM (active).

For `C[N+](C)(C)CCC(=O)N1C/C(=C/c2ccccc2)C(=O)/C(=C\c2ccccc2)C1`, the IC50 [3] was 128 µM (active) and the CC50 [4] was 100 µM (active).

For `C=CCN(C(=O)C1CC(=O)N(C2CCCC2)C1)c1nc(-c2ccc(S(C)(=O)=O)cc2)cs1` (stereo not given), the AC50 [5] was 25.8 µM (active), the AC50 [6] was 41.5 µM (active) and the AC50 [7] was 30.1 µM (active). The AC50 [8] was 36.7 µM (active) and the AC50 [9] was > 52 µM (inactive).

With `C[C@H]1CN([C@@H](C)CO)C(=O)Cc2cc(NC(=O)Nc3ccc(C(F)(F)F)cc3)ccc2O[C@H]1CN(C)Cc1ccncc1` the AC50 [2] was 5.53 µM (active).

With `C[C@@H]1CN([C@H](C)CO)C(=O)Cc2cc(NC(=O)Nc3ccc(F)cc3)ccc2O[C@H]1CN(C)Cc1ccc(-c2ccccc2)cc1` the AC50 [2] was 3.36 µM (active).

With `O=S(=O)(c1ccccc1Cl)N1CCCC1c1nc(-c2ccc(Cl)cc2)no1` (stereo not given) the AC50 [10] was 60.9 µM (active), the AC50 [11] was 1.99 µM (active) and the AC50 [12] was 14.8 µM (active).
